Data on seven molecules can be found in US9067945B2, “Selective phosphodiesterase 9A inhibitors as medicaments for improving cognitive processes” (Boehringer Ingehleim International GmbH, priority 2002, dated 2015).

For one series, the target named is PDE2A (Homo sapiens (Human), UniProt O00408). The series can be described thus: PDE inhibition, recombinant PDE2A (SPA). The series is classed as biochemical. Conditions: Isoenzyme PDE2A. An excerpt: (§1) Recombinant PDE1C (GenBank/EMBL Accession Number: NM_005020, Loughney et al. J. Biol. Chem. 1996 271, 796-806), PDE2A (GenBank/EMBL Accession Number: NM_002599, Rosman et al. Gene 1997 191, 89-95), PDE3B (GenBank/EMBL Accession Number: NM_000922, Miki et al. Genomics 1996, 36, 476-485), PDE4B (GenBank/EMBL Accession Number: NM_002600, Obernolte et al. Gene. 1993, 129, 239-247), PDE5A (GenBank/EMBL Accession Number: NM_001083, Loughney et al. Gene 1998, 216, 139-147), PDE7B (GenBank/EMBL Accession Number: NM_018945, Hetman et al. Proc. Natl. Acad. Sci. U.S.A. 2000, 97, 472-476), PDE8A (GenBank/EMBL Accession Number: AF—056490, Fisher et al. Biochem. Biophys. Res. Commun. […]
(§2) The test substances are dissolved in 100% DMSO and serially diluted to determine their in vitro effect on PDE 9A. […] The plates are then measured for 30 s per well in a Microbeta scintillation counter (Wallac Inc., Atlanta, Ga.). IC50 values are determined from the graphical plot of the substance concentration versus the percentage inhibition.
(§3) The in vitro effect of test substances on recombinant PDE3B, PDE4B, PDE7B, PDE8A, PDE10A and PDE11A is determined in accordance with the assay protocol described above for PDE9A with the following adaptations: [5′,8-^3H] adenosine 3′,5′-cyclic phosphate (1 μCi/μL; Amersham Pharmacia Biotech., Piscataway, N.J.) is used as substrate. […]

The target of another series is PDE3B (Homo sapiens (Human), UniProt Q13370). The series can be described thus: PDE inhibition, recombinant PDE3B (SPA). The conditions noted are these: Isoenzyme PDE3B. The series is classed as biochemical.
Source text: as §1, §2, §3

For a further series, the target named is PDE4B (Homo sapiens (Human), UniProt Q07343). The series can be described thus: PDE inhibition, recombinant PDE4B (SPA). The series is classed as biochemical. The conditions noted are these: Isoenzyme PDE4B.
In the next series the target is PDE5A (Homo sapiens (Human), UniProt O76074). The series can be described thus: PDE inhibition, recombinant PDE5A (SPA). The conditions noted are these: Isoenzyme PDE5A. The series is classed as biochemical.
Source text: as §1, §2, §3

The next series addresses PDE7B (Homo sapiens (Human), UniProt Q9NP56). Put plainly: PDE inhibition, recombinant PDE7B (SPA). Type of series: biochemical. The conditions noted are these: Isoenzyme PDE7B.
Source text: as §1, §2, §3

Another series has as its target PDE8A (Homo sapiens, UniProt O60658). The series can be described thus: PDE inhibition, recombinant PDE8A (SPA). The series is classed as biochemical. Conditions: Isoenzyme PDE8A.
The target of the next series is PDE10A (Homo sapiens (Human), UniProt Q9Y233). The series can be described thus: PDE inhibition, recombinant PDE10A (SPA). The series is classed as biochemical. Conditions: Isoenzyme PDE10A.
Source text: as §1, §2, §3

Another series has as its target PDE11 (Homo sapiens (Human), UniProt Q9HCR9). The series can be described thus: PDE inhibition, recombinant PDE11A (SPA). Conditions: Isoenzyme PDE11, human. Type of series: biochemical.
Source text: as §1, §2, §3

Series [1] concerns primary rat (E18) cortex cultures, intracellular cGMP. Put plainly: Increasing the intracellular neuronal cGMP concentration in cell cultures. Type of series: cell-based. Conditions: primary rat cortical neurons, incubation 20 min, FIG. 1. The method, then: Rat embryos (embryonic day E17-E19) were decapitated, and the heads were transferred into dissection dishes filled with dissection medium (DMEM, penicillin/streptomycin; both from Gibco). The scalp and the roof of the skull were removed, and the exposed brains were transferred into another Petri dish with dissection medium. Using a binocular microscope and two forceps, the cerebrum (cortex) was isolated and cooled to 4° C. with ice. This dissection and the isolation of the cortical neurons were then carried out in accordance with a standard protocol using the Papain kit (Worthington Biochemical Corporation, Lakewood, N.J. 08701, USA) (Huettner et al. J. Neurosci. 1986, 6, 3044-3060). The mechanically isolated cortical neurons were cultivated at 150,000 cells/well in 200 μl of neurobasal medium/well (neurobasal; B27 supplement; 2 mM L-glutamine; in the presence of penicillin/streptomycin; all agents from Gibco) in 96-well plates (pretreated with poly-D-lysine/100 μg/ml for 30 min) under standard conditions (37° C., 5% CO2) for 7 days. After 7 days, the medium was removed and the cells were washed with HBSS buffer (Hank's balanced salt solution, Gibco/BRL). […] Subsequently, the cells were lyzed in 200 μl of lysis buffer (cGMP kit code RPN 226; from Amersham Pharmacia Biotech.), and the cGMP concentration was measured as stated by the manufacturer. […]

Series [2] concerns rat hippocampus slices, fEPSP after weak tetanus. The series can be described thus: Long-term potentiation in hippocampus slices. The conditions noted are these: 10 μM, flushed in 10 minutes before to 30 minutes after weak tetanus, vs 0.01% DMSO control, FIG. 2.
In series [3] the test system is rats, learning and memory. Put plainly: Social recognition test. Type of series: in vivo, rat. Conditions: intraperitoneal 0.1-3.0 mg/kg directly after trial 1, retention time 24 hours, FIG. 3. The method, then: Adult rats housed in groups were placed singly in test cages 30 min before the start of the test. Four minutes before the start of the test, the test animal was put in an observation box. After this adaptation time, a juvenile animal was put in with the test animal and the absolute time for which the adult animal inspected the young one was measured for 2 min (trial 1). All behaviors clearly directed at the young animal were measured, i.e. anogenital inspection, pursuit and grooming, during which the old animal was no further than 1 cm from the young animal. The juvenile was then removed, and the adult was treated with Example 2 or vehicle and subsequently returned to its own cage. The test was repeated after a retention time of 24 hours (trial 2). A diminished social interaction time compared with trial 1 would indicate that the adult rat remembers the young animal.
The adult animals received intraperitoneal injections directly following trial 1 either with vehicle (10% ethanol, 20% Solutol, 70% physiological saline) or 0.1 mg/kg, 0.3 mg/kg, 1.0 mg/kg or 3.0 mg/kg of Example 2 dissolved in 10% ethanol, 20% Solutol, 70% physiological saline. […] They had consequently forgotten that they had already had contact with the young animal.

For another series, the target named is Human PDE9A (Homo sapiens (Human), UniProt O76083). The conditions noted are these: concentrations of up to 100 μM; cited from earlier work.
In the next series the target is Murine PDE9A (Mus musculus (Mouse), UniProt O70628). Conditions: concentrations below 200 μM; cited from earlier work.

“Also recorded” adds a separate entry of the source.

Chain of Human PDE9A (O76083 whole entry): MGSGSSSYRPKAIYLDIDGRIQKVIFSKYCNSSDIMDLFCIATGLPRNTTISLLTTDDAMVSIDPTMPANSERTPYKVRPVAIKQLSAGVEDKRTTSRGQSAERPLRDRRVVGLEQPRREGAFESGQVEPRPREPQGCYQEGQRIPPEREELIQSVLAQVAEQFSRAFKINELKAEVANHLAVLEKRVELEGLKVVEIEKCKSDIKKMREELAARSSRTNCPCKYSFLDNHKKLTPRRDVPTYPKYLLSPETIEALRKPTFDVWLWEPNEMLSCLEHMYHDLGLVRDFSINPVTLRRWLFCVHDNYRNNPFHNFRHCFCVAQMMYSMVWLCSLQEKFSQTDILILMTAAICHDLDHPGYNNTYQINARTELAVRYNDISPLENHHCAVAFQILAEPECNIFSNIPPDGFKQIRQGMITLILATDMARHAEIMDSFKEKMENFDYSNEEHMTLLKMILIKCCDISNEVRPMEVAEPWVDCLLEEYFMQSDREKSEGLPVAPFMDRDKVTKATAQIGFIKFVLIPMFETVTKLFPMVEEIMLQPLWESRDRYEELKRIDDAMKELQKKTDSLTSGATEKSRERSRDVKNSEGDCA
Chain of PDE4B (Q07343 other isoform, or with tags, fused parts or gaps isoform Q07343-2): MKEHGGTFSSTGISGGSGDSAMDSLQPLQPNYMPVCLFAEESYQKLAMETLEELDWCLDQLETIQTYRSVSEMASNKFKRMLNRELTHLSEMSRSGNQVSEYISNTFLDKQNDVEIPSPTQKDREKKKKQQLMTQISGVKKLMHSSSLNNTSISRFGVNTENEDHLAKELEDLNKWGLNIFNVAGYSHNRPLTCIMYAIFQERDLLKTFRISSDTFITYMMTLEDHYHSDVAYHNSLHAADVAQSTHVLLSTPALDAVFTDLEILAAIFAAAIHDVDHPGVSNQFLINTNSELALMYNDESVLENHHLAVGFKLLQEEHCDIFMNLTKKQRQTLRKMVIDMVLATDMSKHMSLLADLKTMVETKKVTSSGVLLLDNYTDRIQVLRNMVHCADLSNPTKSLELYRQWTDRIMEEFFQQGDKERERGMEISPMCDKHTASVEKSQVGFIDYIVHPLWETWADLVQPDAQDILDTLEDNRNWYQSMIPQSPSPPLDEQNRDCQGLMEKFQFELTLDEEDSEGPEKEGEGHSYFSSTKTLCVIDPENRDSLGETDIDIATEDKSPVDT
Chain of PDE2A (O00408 whole entry): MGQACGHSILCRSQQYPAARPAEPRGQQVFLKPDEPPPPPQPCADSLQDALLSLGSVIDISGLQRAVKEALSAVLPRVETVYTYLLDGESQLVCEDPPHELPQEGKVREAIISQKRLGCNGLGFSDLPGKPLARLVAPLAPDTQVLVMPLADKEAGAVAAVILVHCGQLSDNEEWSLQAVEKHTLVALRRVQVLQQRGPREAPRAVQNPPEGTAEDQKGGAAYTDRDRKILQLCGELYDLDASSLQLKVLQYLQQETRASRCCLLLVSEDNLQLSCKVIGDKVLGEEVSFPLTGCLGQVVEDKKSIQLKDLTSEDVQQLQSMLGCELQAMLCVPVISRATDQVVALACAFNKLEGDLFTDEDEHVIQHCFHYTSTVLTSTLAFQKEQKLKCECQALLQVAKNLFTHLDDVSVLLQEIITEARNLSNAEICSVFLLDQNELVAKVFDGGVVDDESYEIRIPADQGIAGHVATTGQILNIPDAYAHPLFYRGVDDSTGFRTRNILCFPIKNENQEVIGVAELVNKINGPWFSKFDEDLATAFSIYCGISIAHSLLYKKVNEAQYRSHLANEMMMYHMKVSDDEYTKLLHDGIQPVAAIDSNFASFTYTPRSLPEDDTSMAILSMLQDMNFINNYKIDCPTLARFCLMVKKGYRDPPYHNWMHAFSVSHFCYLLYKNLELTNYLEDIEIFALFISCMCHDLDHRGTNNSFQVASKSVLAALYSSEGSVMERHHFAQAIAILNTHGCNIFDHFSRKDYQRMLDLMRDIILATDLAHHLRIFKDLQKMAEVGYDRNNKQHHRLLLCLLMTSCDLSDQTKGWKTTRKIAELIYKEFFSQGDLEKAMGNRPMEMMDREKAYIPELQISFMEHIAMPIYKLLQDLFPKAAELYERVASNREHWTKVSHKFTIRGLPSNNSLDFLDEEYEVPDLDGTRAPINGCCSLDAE
Chain of PDE10A (Q9Y233 other isoform, or with tags, fused parts or gaps): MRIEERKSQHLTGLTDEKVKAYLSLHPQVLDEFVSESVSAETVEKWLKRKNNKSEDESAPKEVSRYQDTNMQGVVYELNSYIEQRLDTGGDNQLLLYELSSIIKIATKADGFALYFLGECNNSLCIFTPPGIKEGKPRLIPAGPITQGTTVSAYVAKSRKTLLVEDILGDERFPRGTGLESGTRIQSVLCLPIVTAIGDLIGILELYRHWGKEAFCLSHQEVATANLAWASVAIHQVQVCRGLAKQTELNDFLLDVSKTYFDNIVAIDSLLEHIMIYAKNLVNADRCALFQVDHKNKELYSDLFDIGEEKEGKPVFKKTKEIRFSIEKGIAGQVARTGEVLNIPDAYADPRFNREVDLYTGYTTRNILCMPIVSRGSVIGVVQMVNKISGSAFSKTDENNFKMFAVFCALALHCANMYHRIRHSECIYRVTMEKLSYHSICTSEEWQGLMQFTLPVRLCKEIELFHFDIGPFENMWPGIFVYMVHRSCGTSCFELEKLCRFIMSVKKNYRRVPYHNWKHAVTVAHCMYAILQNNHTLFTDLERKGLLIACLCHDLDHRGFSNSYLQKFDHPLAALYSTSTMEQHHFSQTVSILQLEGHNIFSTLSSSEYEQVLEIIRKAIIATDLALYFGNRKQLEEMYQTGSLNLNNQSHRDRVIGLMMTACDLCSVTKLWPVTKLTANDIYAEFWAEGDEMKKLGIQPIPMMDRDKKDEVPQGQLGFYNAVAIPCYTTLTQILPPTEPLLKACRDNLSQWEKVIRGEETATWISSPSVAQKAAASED
Chain of Murine PDE9A (O70628 whole entry): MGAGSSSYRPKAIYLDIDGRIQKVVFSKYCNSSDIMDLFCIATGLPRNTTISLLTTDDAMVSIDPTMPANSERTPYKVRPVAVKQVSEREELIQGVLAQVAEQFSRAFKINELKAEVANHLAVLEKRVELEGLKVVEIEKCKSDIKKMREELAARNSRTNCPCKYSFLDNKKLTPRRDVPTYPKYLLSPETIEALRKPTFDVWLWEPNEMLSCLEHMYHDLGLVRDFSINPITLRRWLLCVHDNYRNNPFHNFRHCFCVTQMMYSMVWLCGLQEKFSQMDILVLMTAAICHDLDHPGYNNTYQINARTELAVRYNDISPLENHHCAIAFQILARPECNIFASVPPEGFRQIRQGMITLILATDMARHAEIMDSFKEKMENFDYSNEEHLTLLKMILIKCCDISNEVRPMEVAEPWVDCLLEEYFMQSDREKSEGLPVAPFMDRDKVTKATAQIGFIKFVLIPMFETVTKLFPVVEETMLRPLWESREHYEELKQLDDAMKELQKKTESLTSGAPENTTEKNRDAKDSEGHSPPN
Chain of PDE8A (O60658 whole entry, looked up): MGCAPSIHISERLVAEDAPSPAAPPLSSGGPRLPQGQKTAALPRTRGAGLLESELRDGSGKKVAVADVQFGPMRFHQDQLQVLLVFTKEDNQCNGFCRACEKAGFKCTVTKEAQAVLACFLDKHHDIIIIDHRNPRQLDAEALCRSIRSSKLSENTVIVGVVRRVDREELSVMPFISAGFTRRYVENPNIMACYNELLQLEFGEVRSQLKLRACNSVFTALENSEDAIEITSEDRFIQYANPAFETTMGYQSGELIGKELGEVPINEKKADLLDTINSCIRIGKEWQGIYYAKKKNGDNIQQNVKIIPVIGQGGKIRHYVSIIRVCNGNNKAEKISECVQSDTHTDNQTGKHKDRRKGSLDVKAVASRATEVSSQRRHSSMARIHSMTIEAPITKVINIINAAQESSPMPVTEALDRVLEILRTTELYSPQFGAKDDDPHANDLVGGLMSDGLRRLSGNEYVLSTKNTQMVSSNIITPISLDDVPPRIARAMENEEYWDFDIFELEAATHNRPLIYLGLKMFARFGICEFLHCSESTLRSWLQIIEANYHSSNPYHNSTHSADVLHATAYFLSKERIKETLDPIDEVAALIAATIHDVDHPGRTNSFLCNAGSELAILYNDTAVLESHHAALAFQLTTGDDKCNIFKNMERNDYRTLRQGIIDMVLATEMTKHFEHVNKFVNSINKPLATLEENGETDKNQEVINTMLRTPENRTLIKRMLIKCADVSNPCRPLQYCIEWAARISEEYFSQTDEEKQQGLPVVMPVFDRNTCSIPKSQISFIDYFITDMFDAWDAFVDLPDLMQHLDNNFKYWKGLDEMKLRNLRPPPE
Chain of PDE11 (Q9HCR9 445-933, change not shown): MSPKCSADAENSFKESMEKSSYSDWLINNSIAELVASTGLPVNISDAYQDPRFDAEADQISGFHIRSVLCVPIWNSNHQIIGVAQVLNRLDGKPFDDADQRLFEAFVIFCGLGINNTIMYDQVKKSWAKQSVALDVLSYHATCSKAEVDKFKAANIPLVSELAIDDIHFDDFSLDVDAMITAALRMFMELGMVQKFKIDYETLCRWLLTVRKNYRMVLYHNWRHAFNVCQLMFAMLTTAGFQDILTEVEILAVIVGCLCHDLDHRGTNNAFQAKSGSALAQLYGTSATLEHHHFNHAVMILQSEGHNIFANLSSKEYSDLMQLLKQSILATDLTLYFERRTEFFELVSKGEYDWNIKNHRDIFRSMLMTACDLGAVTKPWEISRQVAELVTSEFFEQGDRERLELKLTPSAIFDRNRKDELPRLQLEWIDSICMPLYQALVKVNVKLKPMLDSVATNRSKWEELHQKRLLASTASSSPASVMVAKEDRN

Molecule `O=c1[nH]c(CC2CCCCC2)nc2c1cnn2C1CCCC1` came in with a melting point of 147 °C.

The molecule `CCC(CC)n1ncc2c(=O)[nH]c(CC3CCCCC3)nc21` [Example 2, 6-(Cyclohexylmethyl)-1-(1-ethylpropyl)-1,5-dihydro-4H-pyrazolo[3,4-d]-pyrimidin-4-one] returned a melting point of 122 °C. Besides, the IC50 at PDE2A was over 4 µM. For the same molecule, the half-inhibitory concentration (IC50) at PDE3B was over 4 µM. Besides, the concentration for half-maximal inhibition (IC50) at PDE4B is over 4 µM. The concentration for half-maximal inhibition (IC50) on PDE5A is over 4 µM. For the same molecule, on PDE7B, the IC50 was over 4 µM. For the same molecule, on PDE8A, the 50% inhibitory concentration (IC50) is over 4 µM. The IC50 on PDE10A was over 4 µM. Besides, on PDE11, the half-maximal inhibitory concentration (IC50) was over 4 µM. For the same molecule, the “cGMP content of primary neurons” value in series [1] was “increase in the cGMP content”. Further, the “LTP / potentiation of fEPSP after weak tetanus” value in series [2] was “significant increase in the LTP; also recorded: significantly augmented the increase in the fEPSP”. Also, the “social interaction time in trial 2 compared with vehicle” value in series [3] was “significantly reduced”.

With `CC(C)Cn1c(=O)n(C)c(=O)c2[nH]cnc21` [IBMX], the “inhibition on the isolated enzyme” value on Human PDE9A is “no inhibition”. In addition, at Murine PDE9A, the “inhibition of murine PDE9A” value was “not inhibited”.

Consider `CC(=O)Nc1ccc(-c2c[nH]c(=O)cn2)cc1` [SKF94120], for which, at Human PDE9A, the “inhibition on the isolated enzyme” value is “no inhibition”.

For the molecule `OCCN(CCO)c1nc(N2CCCCC2)c2nc(N(CCO)CCO)nc(N3CCCCC3)c2n1` [dipyridamole], at Human PDE9A, the “inhibition on the isolated enzyme” value was “no inhibition”.

For `COc1ccc(C2CNC(=O)C2)cc1OC1CCCC1` (stereo not shown) [rolipram], the “inhibition on the isolated enzyme” value on Human PDE9A is listed as “no inhibition”.

On to `CCOC(=O)C1=C[C@]2(CC)CCCN3CCc4c(n1c1ccccc41)[C@@H]32` [vinpocetine], for which the “inhibition on the isolated enzyme” value on Human PDE9A is on record as “no inhibition”.

The term melting point denotes the temperature of the solid-liquid transition. The IC50 is the concentration needed to halve the response being measured.
